This passage reports LC retention time results from the RepoRT retention time repository.

The series can be described thus: RP, Waters ACQUITY UPLC HSS T3, 0.1 mL/min; A: water + 0.01% formic acid; B: acetonitrile + 0.01% formic acid; gradient (min/%B) 0/10 38/45 45/45 55/0 60/0. As to conditions: stereoisomer not certain.
Take `CC(C)N(C(=O)COc1nnc(C(F)(F)F)s1)c1ccc(F)cc1` [Flufenacet]: the LC retention time was 41.1 min. On to `CNCCC(Oc1ccc(C(F)(F)F)cc1)c1ccccc1` (stereo not given) [Fluoxetine], for which the LC retention time amounted to 23.7 min. For `Nc1c(Cl)c(F)nc(OCC(=O)O)c1Cl` [Fluroxypyr], the LC retention time is 14.4 min. On to `CNC1=C(c2cccc(C(F)(F)F)c2)C(=O)C(c2ccccc2)O1` (stereo not given) [Flurtamone], for which the LC retention time worked out at 34.1 min. Turning to `COc1cc(OC)nc(NC(=O)NS(=O)(=O)c2cc(NC=O)ccc2C(=O)N(C)C)n1` [Foramsulfuron], the LC retention time was 17.9 min. Regarding `CCOP(=O)(SC(C)CC)N1CCSC1=O` (stereo not given) [Fosthiazate], the LC retention time was 22.2 min. Regarding `CC12CCC(=O)C=C1CCC1C2C(O)CC2(C)C1CCC2(O)C(=O)CO` (stereo not given) [Hydrocortisone], the LC retention time came to 15.9 min. As to `O=C(O)Cc1c[nH]c2ccc(O)cc12` [Hydroxyindoleacetic acid], the LC retention time amounted to 5.71 min. In the case of `CC(C)Cc1ccc(C(C)C(=O)O)cc1` (stereo not given) [Ibuprofen], the LC retention time came to 39.9 min. For `COC(=O)c1ccc(C)cc1C1=NC(C)(C(C)C)C(=O)N1` (stereo not given) [Imazamethabenz-methyl], the LC retention time came out at 14.2 min. Turning to `COCc1cnc(C2=NC(C)(C(C)C)C(=O)N2)c(C(=O)O)c1` (stereo not given) [Imazamox], the LC retention time came to 9.34 min. On to `CC(C)C1(C)N=C(c2nc3ccccc3cc2C(=O)O)NC1=O` (stereo not given) [Imazaquin], for which the LC retention time was found to be 16.3 min. In the case of `O=[N+]([O-])/N=C1\NCCN1Cc1ccc(Cl)nc1` [Imidacloprid], the LC retention time came to 8.57 min. Turning to `COC(=O)c1ccc(I)cc1S(=O)(=O)NC(=O)Nc1nc(C)nc(OC)n1` [Iodosulfuron-methyl], the LC retention time came out at 30.4 min. With `CC(C)NC(=O)N1CC(=O)N(c2cc(Cl)cc(Cl)c2)C1=O` [Iprodione], the LC retention time is 39.9 min. The value for `CSc1nc(NC2CC2)nc(NC(C)(C)C)n1` [Irgarol] was 29.9 min. For `CC(C)c1ccc(NC(=O)N(C)C)cc1` [Isoproturon] the value was 23.4 min; for `CCC(C)(CC)c1cc(NC(=O)c2c(OC)cccc2OC)on1` [Isoxaben], 39 min. The value for `CS(=O)(=O)c1cc(C(F)(F)F)ccc1C(=O)c1cnoc1C1CC1` [Isoxaflutole] was 35.3 min; that for `CC(C(=O)O)c1cccc(C(=O)c2ccccc2)c1` (stereo not given) [Ketoprofen] was 28.3 min; that for `N[C@@H](Cc1cc(I)c(Oc2cc(I)c(O)c(I)c2)c(I)c1)C(=O)O` [L-thyroxine] was 25.6 min. On to `CCCCCC=CCC(O)C=CC=CC=CC(O)CCCC(=O)O` (stereo not given) [Leukotriene B4], for which the LC retention time turned out to be 39.5 min. As to `CCCCCC=CCC=CC=CC=CC(SCC(N)C(=O)NCC(=O)O)C(O)CCCC(=O)O` (stereo not given) [Leukotriene D4], the LC retention time is 33 min. For `CON(C)C(=O)Nc1ccc(Cl)c(Cl)c1` [Linuron] the value was 31.7 min; for `CCOC(=O)CC(SP(=S)(OC)OC)C(=O)OCC` (stereo not given) [Malathion], 40.8 min. Take `COC(=O)c1ccc(CNS(C)(=O)=O)cc1S(=O)(=O)NC(=O)Nc1nc(OC)cc(OC)n1` [Mesosulfuron-methyl]: the LC retention time was 26.6 min.

As for `CS(=O)(=O)c1ccc(C(=O)C2C(=O)CCCC2=O)c([N+](=O)[O-])c1` [Mesotrione], the LC retention time worked out at 16.5 min. With `COCC(=O)N(c1c(C)cccc1C)C(C)C(=O)OC` (stereo not given) [Metalaxyl], the LC retention time came out at 24.3 min. For `Cc1nnc(-c2ccccc2)c(=O)n1N` [Metamitron] the value was 8.55 min; for `Cc1cccc(C)c1N(Cn1cccn1)C(=O)CCl` [Metazachlore], 26.6 min.

In the case of `CNC(=O)N(C)c1nc2ccccc2s1` [Methabenzthiazuron], the LC retention time was determined as 19.4 min.

Take `COC(=O)c1ccc(O)cc1` [Methylparaben]: the LC retention time was 10 min. For `CON(C)C(=O)Nc1ccc(Br)cc1` [Metobromuron], the LC retention time was determined as 24.5 min.

Take `CCc1cccc(C)c1N(C(=O)CCl)C(C)COC` (stereo not given) [Metolachlor]: the LC retention time amounted to 26.7 min. For the compound `COc1cc(OC)n2nc(S(=O)(=O)Nc3c(Cl)ccc(C)c3Cl)nc2n1` [Metosulam], the LC retention time came to 24.8 min. For `CSc1nnc(C(C)(C)C)c(=O)n1N` [Metribuzine], the LC retention time was 15.6 min.

For `COC(=O)c1ccccc1S(=O)(=O)NC(=O)Nc1nc(C)nc(OC)n1` [Metsulfuron-methyl], the LC retention time was determined as 19.4 min. With `CN1CCC23c4c5ccc(O)c4OC2C(O)C=CC3C1C5` (stereo not given) [Morphine], the LC retention time amounted to 4.26 min. As for `COc1cc(OC)nc(NC(=O)NS(=O)(=O)c2ncccc2C(=O)N(C)C)n1` [Nicosulfuron], the LC retention time came out at 15.2 min. The value for `CN1CCCC1c1ccc[n+](C2OC(C(=O)[O-])C(O)C(O)C2O)c1` (stereo not given) [Nicotine Glucuronide] was 1.3 min; that for `CN1CCCC1c1cccnc1` (stereo not given) [Nicotine] was 3.37 min. In the case of `CCCN(CCC)c1c([N+](=O)[O-])cc(S(N)(=O)=O)cc1[N+](=O)[O-]` [Oryzalin], the LC retention time is 41.2 min.

As to `O=C1Nc2ccc(Cl)cc2C(c2ccccc2)=NC1O` (stereo not given) [Oxazepam], the LC retention time is 20.6 min. The value for `COc1ccc(C(=O)c2ccccc2)c(O)c1` [Oxybenzone] was 40.6 min; that for `CC(C)(C)C(O)C(Cc1ccc(Cl)cc1)n1cncn1` (stereo not given) [Paclobutrazole] was 31.5 min. For `CC(=O)Nc1ccc(O)cc1` [Paracetamol] the value was 4.98 min; for `Fc1ccc(C2CCNCC2COc2ccc3c(c2)OCO3)cc1` (stereo not given) [Paroxetine], 18.3 min; for `O=C(Nc1ccccc1)N(Cc1ccc(Cl)cc1)C1CCCC1` [Pencycuron], 43.7 min.

On to `O=C(C=CC=Cc1ccc2c(c1)OCO2)N1CCCCC1` [Piperine], for which the LC retention time amounted to 36.4 min.

As to `CC(C)(C)C(=O)OCOC(=O)C1N2C(=O)C(N=CN3CCCCCC3)C2SC1(C)C` (stereo not given) [Pivmecillinam], the LC retention time came out at 26.4 min. As for `CCC(C)C(=O)OC1CC(O)C=C2C=CC(C)C(CCC(O)CC(O)CC(=O)O)C21` (stereo not given) [Pravastatin], the LC retention time was determined as 20.5 min.

Regarding `CC(=O)C1CCC2C3CC=C4CC(O)CCC4(C)C3CCC12C` (stereo not given) [Pregnenolone], the LC retention time came to 41.8 min. Consider `CCCN(CCOc1c(Cl)cc(Cl)cc1Cl)C(=O)n1ccnc1` [Prochloraz], for which the LC retention time is 38.7 min. The value for `CC(=O)C1(O)CCC2C3CCC4=CC(=O)CCC4(C)C3CCC21C` (stereo not given) [Progesterone-17-hydroxy] was 33.9 min.

On to `CC(=O)C1CCC2C3CCC4=CC(=O)CCC4(C)C3CCC12C` (stereo not given) [Progesterone], for which the LC retention time turned out to be 42.1 min. With `CC(C)N(C(=O)CCl)c1ccccc1` [Propachlore], the LC retention time was determined as 25.8 min.

Turning to `CCCOC(=O)NCCCN(C)C` [Propamocarb], the LC retention time is 5.59 min.

Take `CCCC1COC(Cn2cncn2)(c2ccc(Cl)cc2Cl)O1` (stereo not given) [Propiconazole]: the LC retention time came out at 41.7 min. In the case of `CCCOc1nn(C(=O)NS(=O)(=O)c2ccccc2C(=O)OC)c(=O)n1C` [Propoxycarbazone], the LC retention time was 22.1 min.

With `CCCOC(=O)c1ccc(O)cc1` [Propylparaben], the LC retention time was 22 min.

Consider `C#CC(C)(C)NC(=O)c1cc(Cl)cc(Cl)c1` [Propyzamide], for which the LC retention time stood at 35.6 min.

For the compound `CCCCCC(O)C=CC1C(=O)CC(O)C1CC=CCCCC(=O)O` (stereo not given) [Prostaglandin D2], the LC retention time was found to be 27.6 min. `CCCCCC(O)C=CC1C(O)CC(=O)C1CC=CCCCC(=O)O` (stereo not given) [Prostaglandin E2]: the LC retention time came out at 26.5 min. The value for `CCCCCC(O)C=CC1C(O)CC(O)C1CC=CCCCC(=O)O` (stereo not given) [Prostaglandin F2a] was 25.6 min. The value for `COc1nc(C)nc(NC(=O)NS(=O)(=O)c2ccccc2CCC(F)(F)F)n1` [Prosulfuron] was 34.5 min; that for `CC1=NNC(=O)N(N=Cc2cccnc2)C1` [Pymetrozine] was 26.7 min. Consider `COC(=O)N(OC)c1ccccc1COc1ccn(-c2ccc(Cl)cc2)n1` [Pyraclostrobine], for which the LC retention time was 43.5 min. In the case of `Cc1cc(C)nc(Nc2ccccc2)n1` [Pyrimethanil], the LC retention time came out at 22.2 min. For `COc1cc(OC)n2nc(NS(=O)(=O)c3c(C(F)(F)F)ccnc3OC)nc2n1` [Pyroxsulam] the value was 20.3 min; for `Cc1cnc2c(C(=O)O)c(Cl)ccc2c1` [Quinmerac], 8.87 min.

As for `O=C(O)c1ccccc1O` [Salicylic acid], the LC retention time is 8.4 min. The value for `CNC1CCC(c2ccc(Cl)c(Cl)c2)c2ccccc21` (stereo not given) [Sertraline] was 24.3 min; that for `CCNc1nc(Cl)nc(NCC)n1` [Simazine] was 14.5 min; that for `CC1CCC2C(C)C3C(CC4C5CC=C6CC(O)CCC6(C)C5CCC43C)N2C1` (stereo not given) [Solanidine] was 24.5 min. As to `CS(=O)(=O)c1ccc(C(=O)C2C(=O)CCCC2=O)c(Cl)c1` [Sulcotrione], the LC retention time is 18.6 min. Consider `CC(C)(C)C(O)(CCc1ccc(Cl)cc1)Cn1cncn1` (stereo not given) [Tebuconazole], for which the LC retention time is 39.5 min. For the compound `CC(C)N(Cc1ccccc1)C(=O)C(C)(C)C` [Tebutame], the LC retention time worked out at 39 min. As to `CCNc1nc(Cl)nc(NC(C)(C)C)n1` [Terbuthylazine], the LC retention time was 30.6 min. Take `CCNc1nc(NC(C)(C)C)nc(SC)n1` [Terbutryne]: the LC retention time came out at 28 min. As to `CCNc1nc(NC(C)(C)C)[nH]c(=O)n1` [Tertbutylazine-2-hydroxy], the LC retention time is 8.38 min.
